Literature values in paper PMC4274137 (HIV/AIDS (Auckland, N.Z.), 2014).
Read-outs that look alike come from different tables or passages of the source.

Experiments:
HIV patients [1] = test system: HIV patients
HIV patients [2] = conditions: DAD study
HIV patients [3] = test system: HIV patients; remark: listed apart in the source
HIV patients [4] = conditions: HIV patients in France
HIV patients [5] = conditions: Danish study
[6] = HIV dyslipidemia, ezetimibe monotherapy or combined with statin

Question: Which results are given for `O=C1[C@H](CC[C@H](O)c2ccc(F)cc2)[C@@H](c2ccc(O)cc2)N1c1ccc(F)cc1` [Ezetimibe]?
Answer: lipid-lowering efficacy (HIV dyslipidemia; [6]): effective; safety (HIV patients [1]; [6]): safe

Question: For `CC(C)OC(=O)C(C)(C)Oc1ccc(C(=O)c2ccc(Cl)cc2)cc1` [Fenofibrate], which “efficacy in mixed dyslipidemia and hypertriglyceridemia” value (HIV dyslipidemia; people with HIV infection) is on record?
Answer: useful

Question: What about the safety (HIV patients [1]; people with HIV infection) of the same molecule?
Answer: generally safe

Question: Which “efficacy in improving lipid profile” value (HIV dyslipidemia; HIV patients, two studies) does the source give for `O=C(O)c1cccnc1` [Niacin] here?
Answer: effective

Question: What about the safety (HIV patients [1]; HIV patients, two studies) of the same molecule?
Answer: safe

Question: Which “risk of myocardial infarction” value (HIV patients [2]) does the source give for `Nc1nc(NC2CC2)c2ncn([C@H]3C=C[C@@H](CO)C3)c2n1` [abacavir] here?
Answer: associated with independent risk of myocardial infarction

Question: Which “total cholesterol and triglycerides” value (HIV patients [3]; HIV patients on NNRTIs) does the source give for `O=C1Nc2ccc(Cl)cc2[C@@](C#CC2CC2)(C(F)(F)F)O1` [efavirenz] here?
Answer: associated with increase in total cholesterol and triglycerides

Question: For `Cc1cn([C@H]2C=C[C@@H](CO)O2)c(=O)[nH]c1=O` [stavudine], which “risk factor for hypothyroidism” value (HIV patients [4]) is on record?
Answer: risk factors

Question: What about the “association of treatment with NAFLD” value (Asian patients with HIV) of the same molecule?
Answer: not with HIV-related factors

Question: Which “estimated glomerular filtration rate (eGFR)” value (HIV patients [5]) does the source give for `C[C@H](Cn1cnc2c(N)ncnc21)OCP(=O)(O)O` [tenofovir] here?
Answer: reduced estimated glomerular filtration rate

Question: What about the “high triglycerides and lipoatrophy (NRTI effect)” value (HIV patients [3]; compared with other NRTIs) of the same molecule?
Answer: this effect is less seen

Question: For `Nc1ccn([C@H]2CC[C@@H](CO)O2)c(=O)n1` [zalcitabine], which “association of treatment with NAFLD” value (Asian patients with HIV) is on record?
Answer: not with HIV-related factors
